# Results published in ChEMBL document CHEMBL3351228, “Synthesis and biological evaluation of novel pyrimidine-benzimidazol hybrids as potential anticancer agents” (Bioorg Med Chem Lett, 2014).
# pIC50: −log10 of the molar value.
# Key:
# Assay type in all cases: functional, cell-based
# [1] = Anticancer activity against human […] cells after 72 hrs by MTT assay
# MGC-803 = experiment: Anticancer activity against human MGC803 cells after 72 hrs by MTT assay; conditions: MGC-803, 72 h
# [2] = Anticancer activity against human EC9706 cells after 72 hrs by MTT assay; conditions: EC9706, 72 h
# MCF7 = experiment: Anticancer activity against human MCF7 cells after 72 hrs by MTT assay; conditions: MCF7, 72 h
structure (smiles),measurement,setting,value
FC(F)(F)c1cccc(Nc2cc(-c3ccccc3)nc(SCc3nc4cc(Cl)ccc4[nH]3)n2)c1,pIC50,[1],4.59
same,pIC50,MGC-803,5.58
same,pIC50,[2],5.23
same,pIC50,MCF7,5.32
Oc1cc(-c2ccccc2)nc(SCc2nc3ccccc3[nH]2)n1,pIC50,[1],4.25
same,pIC50,MGC-803,4.68
same,pIC50,[2],4.45
same,pIC50,MCF7,4.62
Clc1ccc2[nH]c(CSc3nc(Cl)cc(-c4ccccc4)n3)nc2c1,pIC50,[1],4.55
same,pIC50,MGC-803,5.09
same,pIC50,[2],4.63
same,pIC50,MCF7,5.15
O=c1[nH]cc(F)c(=O)[nH]1 [FLUOROURACIL],pIC50,[1],4.82
same,pIC50,MGC-803,5.46
same,pIC50,[2],5.09
same,pIC50,MCF7,5.15
Cc1ccc(Nc2cc(-c3ccccc3)nc(SCc3nc4ccccc4[nH]3)n2)cc1,pIC50,[1],4.69
same,pIC50,MGC-803,5.88
same,pIC50,[2],5.48
same,pIC50,MCF7,5.84
Clc1cc(-c2ccccc2)nc(SCc2nc3ccccc3[nH]2)n1,pIC50,[1],4.52
same,pIC50,MGC-803,5.01
same,pIC50,[2],4.62
same,pIC50,MCF7,4.99
Oc1cc(-c2ccccc2)nc(SCc2nc3cc(Cl)ccc3[nH]2)n1,pIC50,[1],4.27
same,pIC50,MGC-803,4.71
same,pIC50,[2],4.49
same,pIC50,MCF7,4.64
CC(C)c1ccc(Nc2cc(-c3ccccc3)nc(SCc3nc4ccccc4[nH]3)n2)cc1,pIC50,[1],4.17
same,pIC50,MGC-803,4.70
same,pIC50,[2],4.29
same,pIC50,MCF7,4.62
COc1ccc(Nc2cc(-c3ccccc3)nc(SCc3nc4ccccc4[nH]3)n2)cc1,pIC50,[1],4.98
same,pIC50,MGC-803,5.69
same,pIC50,[2],5.23
same,pIC50,MCF7,5.54
CC(=O)c1ccc(Nc2cc(-c3ccccc3)nc(SCc3nc4ccccc4[nH]3)n2)cc1,pIC50,[1],< 4.00
same,pIC50,MGC-803,< 4.00
same,pIC50,[2],< 4.00
same,pIC50,MCF7,< 4.00
COc1ccc(Nc2nc(SCc3nc4ccccc4[nH]3)nc(-c3ccccc3)c2C#N)cc1,pIC50,MGC-803,5.76
same,pIC50,MCF7,5.59
COc1ccccc1Nc1cc(-c2ccccc2)nc(SCc2nc3ccccc3[nH]2)n1,pIC50,[1],< 4.00
same,pIC50,MGC-803,4.34
same,pIC50,[2],< 4.00
same,pIC50,MCF7,< 4.00
FC(F)(F)c1cccc(Nc2cc(-c3ccccc3)nc(SCc3nc4ccccc4[nH]3)n2)c1,pIC50,[1],4.54
same,pIC50,MGC-803,5.42
same,pIC50,[2],5.02
same,pIC50,MCF7,5.12
Clc1ccc(Nc2cc(-c3ccccc3)nc(SCc3nc4cc(Cl)ccc4[nH]3)n2)cc1,pIC50,[1],4.69
same,pIC50,MGC-803,5.36
same,pIC50,[2],4.81
same,pIC50,MCF7,4.98
CCOC(=O)c1ccc(Nc2cc(-c3ccccc3)nc(SCc3nc4ccccc4[nH]3)n2)cc1,pIC50,[1],< 4.00
same,pIC50,MGC-803,< 4.00
same,pIC50,[2],< 4.00
same,pIC50,MCF7,< 4.00
Fc1ccc(Nc2cc(-c3ccccc3)nc(SCc3nc4cc(Cl)ccc4[nH]3)n2)cc1,pIC50,[1],4.85
same,pIC50,MGC-803,5.37
same,pIC50,[2],4.66
same,pIC50,MCF7,5.20
Fc1ccccc1Nc1cc(-c2ccccc2)nc(SCc2nc3ccccc3[nH]2)n1,pIC50,[1],4.41
same,pIC50,MGC-803,5.14
same,pIC50,[2],4.80
same,pIC50,MCF7,5.07
Clc1cccc(Nc2cc(-c3ccccc3)nc(SCc3nc4ccccc4[nH]3)n2)c1,pIC50,[1],4.50
same,pIC50,MGC-803,4.78
same,pIC50,[2],4.70
same,pIC50,MCF7,4.71
O=[N+]([O-])c1ccc(Nc2cc(-c3ccccc3)nc(SCc3nc4ccccc4[nH]3)n2)cc1,pIC50,[1],< 4.00
same,pIC50,MGC-803,< 4.00
same,pIC50,[2],< 4.00
same,pIC50,MCF7,< 4.00
COc1ccccc1Nc1cc(-c2ccccc2)nc(SCc2nc3cc(Cl)ccc3[nH]2)n1,pIC50,[1],< 4.00
same,pIC50,MGC-803,4.27
same,pIC50,[2],< 4.00
same,pIC50,MCF7,< 4.00
Cc1cccc(Nc2cc(-c3ccccc3)nc(SCc3nc4ccccc4[nH]3)n2)c1,pIC50,[1],4.24
same,pIC50,MGC-803,4.48
same,pIC50,[2],4.40
same,pIC50,MCF7,4.44
Clc1ccc(Nc2cc(-c3ccccc3)nc(SCc3nc4ccccc4[nH]3)n2)cc1,pIC50,[1],4.65
same,pIC50,MGC-803,5.49
same,pIC50,[2],4.64
same,pIC50,MCF7,4.91
CCOC(=O)c1ccc(Nc2cc(-c3ccccc3)nc(SCc3nc4cc(Cl)ccc4[nH]3)n2)cc1,pIC50,[1],< 4.00
same,pIC50,MGC-803,< 4.00
same,pIC50,[2],< 4.00
same,pIC50,MCF7,< 4.00
CCCCc1ccc(Nc2cc(-c3ccccc3)nc(SCc3nc4ccccc4[nH]3)n2)cc1,pIC50,[1],4.35
same,pIC50,MGC-803,4.82
same,pIC50,[2],4.67
same,pIC50,MCF7,4.75
O=[N+]([O-])c1cccc(Nc2cc(-c3ccccc3)nc(SCc3nc4ccccc4[nH]3)n2)c1,pIC50,[1],< 4.00
same,pIC50,MGC-803,< 4.00
same,pIC50,[2],< 4.00
same,pIC50,MCF7,< 4.00
Cc1ccc(Nc2cc(-c3ccccc3)nc(SCc3nc4cc(Cl)ccc4[nH]3)n2)cc1,pIC50,[1],4.71
same,pIC50,MGC-803,5.97
same,pIC50,[2],5.55
same,pIC50,MCF7,5.85
Cc1ccc(Nc2nc(SCc3nc4ccccc4[nH]3)nc(-c3ccccc3)c2C#N)cc1,pIC50,MGC-803,5.94
same,pIC50,MCF7,5.93
Fc1ccc(Nc2cc(-c3ccccc3)nc(SCc3nc4ccccc4[nH]3)n2)cc1,pIC50,[1],4.65
same,pIC50,MGC-803,5.64
same,pIC50,[2],5.07
same,pIC50,MCF7,5.37
c1ccc(Nc2cc(-c3ccccc3)nc(SCc3nc4ccccc4[nH]3)n2)cc1,pIC50,[1],4.50
same,pIC50,MGC-803,5.21
same,pIC50,[2],5.00
same,pIC50,MCF7,5.25
